Laboratory results published in the supplement of paper PMC10307832.

How the values were obtained:
Assay in all cases: relative viability (nuclei count vs DMSO), 5 days (fraction); higher = more cells survive
AZ505 + Olaparib = compound: C1CCC(CC1)N(CCNCCC2=C3C(=C(C=C2)O)NC(=O)CO3)C(=O)CCNCCC4=CC(=C(C=C4)Cl)Cl [AZ505] + O=C(c1cc(Cc2n[nH]c(=O)c3ccccc23)ccc1F)N1CCN(C(=O)C2CC2)CC1 [Olaparib] (partner 8 µM)
Procedure, shortened: (§1)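 Values are medians from duplicate plates. Each reflects relative viability, defined as the nuclei count of treated wells over that of vehicle wells. Lung cancer cell lines in 1536-well plates were pin-tool dosed one day after seeding with one drug alone or with a fixed anchor-drug dose plus five library-drug doses (not always all listed) in √10 steps, then fixed, stained and imaged at 4× after 5 days.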

AZ505 + Bortezomib = compound: C1CCC(CC1)N(CCNCCC2=C3C(=C(C=C2)O)NC(=O)CO3)C(=O)CCNCCC4=CC(=C(C=C4)Cl)Cl [AZ505] + CC(C)C[C@H](NC(=O)[C@H](Cc1ccccc1)NC(=O)c1cnccn1)B(O)O [Bortezomib] (partner 0.002 µM)
Procedure, shortened: as §1

AZ505 + Tozasertib = compound: C1CCC(CC1)N(CCNCCC2=C3C(=C(C=C2)O)NC(=O)CO3)C(=O)CCNCCC4=CC(=C(C=C4)Cl)Cl [AZ505] + Cc1cc(Nc2cc(N3CCN(C)CC3)nc(Sc3ccc(NC(=O)C4CC4)cc3)n2)n[nH]1 [Tozasertib] (partner 0.1 µM)
Procedure, shortened: as §1

AZ505 + Lapatinib = compound: C1CCC(CC1)N(CCNCCC2=C3C(=C(C=C2)O)NC(=O)CO3)C(=O)CCNCCC4=CC(=C(C=C4)Cl)Cl [AZ505] + CS(=O)(=O)CCNCc1ccc(-c2ccc3ncnc(Nc4ccc(OCc5cccc(F)c5)c(Cl)c4)c3c2)o1 [Lapatinib] (partner 2 µM)
Procedure, shortened: as §1

SW 1573
relative viability (AZ505 + Olaparib; first compound 0.08 µM): 0.391
relative viability (AZ505 + Olaparib; first compound 0.253 µM): 0.493
relative viability (AZ505 + Olaparib; first compound 0.8 µM): 0.425
relative viability (AZ505 + Olaparib; first compound 2.53 µM): 0.468
relative viability (AZ505 + Olaparib; first compound 8 µM): 0.467
relative viability (AZ505 + Bortezomib; first compound 0.08 µM): 0.907
relative viability (AZ505 + Bortezomib; first compound 0.253 µM): 1.08
relative viability (AZ505 + Bortezomib; first compound 0.8 µM): 0.939
relative viability (AZ505 + Bortezomib; first compound 2.53 µM): 1.12
relative viability (AZ505 + Bortezomib; first compound 8 µM): 1.08
relative viability (AZ505 + Tozasertib; first compound 0.08 µM): 0.174
relative viability (AZ505 + Tozasertib; first compound 0.253 µM): 0.169
relative viability (AZ505 + Tozasertib; first compound 0.8 µM): 0.175
relative viability (AZ505 + Tozasertib; first compound 2.53 µM): 0.171
relative viability (AZ505 + Tozasertib; first compound 8 µM): 0.144
relative viability (AZ505 + Lapatinib; first compound 0.08 µM): 1.03
relative viability (AZ505 + Lapatinib; first compound 0.253 µM): 1.04
relative viability (AZ505 + Lapatinib; first compound 0.8 µM): 1.15
relative viability (AZ505 + Lapatinib; first compound 2.53 µM): 1.17
relative viability (AZ505 + Lapatinib; first compound 8 µM): 1.09

NCI-H1975
relative viability (AZ505 + Olaparib; first compound 0.08 µM): 0.747
relative viability (AZ505 + Olaparib; first compound 0.253 µM): 0.883
relative viability (AZ505 + Olaparib; first compound 0.8 µM): 0.75
relative viability (AZ505 + Olaparib; first compound 2.53 µM): 0.775
relative viability (AZ505 + Olaparib; first compound 8 µM): 0.904
relative viability (AZ505 + Bortezomib; first compound 0.08 µM): 0.333
relative viability (AZ505 + Bortezomib; first compound 0.253 µM): 0.41
relative viability (AZ505 + Bortezomib; first compound 0.8 µM): 0.335
relative viability (AZ505 + Bortezomib; first compound 2.53 µM): 0.327
relative viability (AZ505 + Bortezomib; first compound 8 µM): 0.356
relative viability (AZ505 + Tozasertib; first compound 0.08 µM): 0.649
relative viability (AZ505 + Tozasertib; first compound 0.253 µM): 0.733
relative viability (AZ505 + Tozasertib; first compound 0.8 µM): 0.731
relative viability (AZ505 + Tozasertib; first compound 2.53 µM): 0.638
relative viability (AZ505 + Tozasertib; first compound 8 µM): 0.741
relative viability (AZ505 + Lapatinib; first compound 0.08 µM): 0.773
relative viability (AZ505 + Lapatinib; first compound 0.253 µM): 0.82
relative viability (AZ505 + Lapatinib; first compound 0.8 µM): 0.858
relative viability (AZ505 + Lapatinib; first compound 2.53 µM): 0.9
relative viability (AZ505 + Lapatinib; first compound 8 µM): 0.885

NCI-H1651
relative viability (AZ505 + Olaparib; first compound 0.08 µM): 0.182
relative viability (AZ505 + Olaparib; first compound 0.253 µM): 0.19
relative viability (AZ505 + Olaparib; first compound 0.8 µM): 0.179
relative viability (AZ505 + Olaparib; first compound 2.53 µM): 0.185
relative viability (AZ505 + Olaparib; first compound 8 µM): 0.186
relative viability (AZ505 + Bortezomib; first compound 0.08 µM): 0.882
relative viability (AZ505 + Bortezomib; first compound 0.253 µM): 0.956
relative viability (AZ505 + Bortezomib; first compound 0.8 µM): 0.909
relative viability (AZ505 + Bortezomib; first compound 2.53 µM): 0.927
relative viability (AZ505 + Bortezomib; first compound 8 µM): 1.03
relative viability (AZ505 + Tozasertib; first compound 0.08 µM): 0.65
relative viability (AZ505 + Tozasertib; first compound 0.253 µM): 0.784
relative viability (AZ505 + Tozasertib; first compound 0.8 µM): 0.633
relative viability (AZ505 + Tozasertib; first compound 2.53 µM): 0.725
relative viability (AZ505 + Tozasertib; first compound 8 µM): 0.606
relative viability (AZ505 + Lapatinib; first compound 0.08 µM): 0.781
relative viability (AZ505 + Lapatinib; first compound 0.253 µM): 0.709
relative viability (AZ505 + Lapatinib; first compound 0.8 µM): 0.833
relative viability (AZ505 + Lapatinib; first compound 2.53 µM): 0.784
relative viability (AZ505 + Lapatinib; first compound 8 µM): 0.796

LCLC-97TM1
relative viability (AZ505 + Olaparib; first compound 0.08 µM): 0.326
relative viability (AZ505 + Olaparib; first compound 0.253 µM): 0.471
relative viability (AZ505 + Olaparib; first compound 0.8 µM): 0.369
relative viability (AZ505 + Olaparib; first compound 8 µM): 0.595
relative viability (AZ505 + Bortezomib; first compound 0.08 µM): 0.579
relative viability (AZ505 + Bortezomib; first compound 0.253 µM): 0.461
relative viability (AZ505 + Bortezomib; first compound 0.8 µM): 0.461
relative viability (AZ505 + Bortezomib; first compound 8 µM): 1.08
relative viability (AZ505 + Tozasertib; first compound 0.08 µM): 0.218
relative viability (AZ505 + Tozasertib; first compound 0.253 µM): 0.196
relative viability (AZ505 + Tozasertib; first compound 0.8 µM): 0.214
relative viability (AZ505 + Tozasertib; first compound 2.53 µM): 0.316
relative viability (AZ505 + Tozasertib; first compound 8 µM): 0.302
relative viability (AZ505 + Lapatinib; first compound 0.08 µM): 1.03
relative viability (AZ505 + Lapatinib; first compound 0.253 µM): 0.948
relative viability (AZ505 + Lapatinib; first compound 0.8 µM): 1.28
relative viability (AZ505 + Lapatinib; first compound 2.53 µM): 1.06
relative viability (AZ505 + Lapatinib; first compound 8 µM): 1.3

NCI-H727
relative viability (AZ505 + Olaparib; first compound 0.08 µM): 0.653
relative viability (AZ505 + Olaparib; first compound 0.253 µM): 0.675
relative viability (AZ505 + Olaparib; first compound 0.8 µM): 0.667
relative viability (AZ505 + Olaparib; first compound 2.53 µM): 0.724
relative viability (AZ505 + Olaparib; first compound 8 µM): 0.662
relative viability (AZ505 + Bortezomib; first compound 0.08 µM): 0.728
relative viability (AZ505 + Bortezomib; first compound 0.253 µM): 0.708
relative viability (AZ505 + Bortezomib; first compound 0.8 µM): 0.767
relative viability (AZ505 + Bortezomib; first compound 2.53 µM): 0.747
relative viability (AZ505 + Bortezomib; first compound 8 µM): 0.934
relative viability (AZ505 + Tozasertib; first compound 0.08 µM): 0.645
relative viability (AZ505 + Tozasertib; first compound 0.253 µM): 0.53
relative viability (AZ505 + Tozasertib; first compound 0.8 µM): 0.525
relative viability (AZ505 + Tozasertib; first compound 8 µM): 0.581
relative viability (AZ505 + Lapatinib; first compound 0.08 µM): 0.702
relative viability (AZ505 + Lapatinib; first compound 0.253 µM): 0.765
relative viability (AZ505 + Lapatinib; first compound 0.8 µM): 0.743
relative viability (AZ505 + Lapatinib; first compound 2.53 µM): 0.66
relative viability (AZ505 + Lapatinib; first compound 8 µM): 0.781

NCI-H1355
relative viability (AZ505 + Olaparib; first compound 0.08 µM): 0.719
relative viability (AZ505 + Olaparib; first compound 0.253 µM): 0.796
relative viability (AZ505 + Olaparib; first compound 0.8 µM): 0.729
relative viability (AZ505 + Olaparib; first compound 2.53 µM): 0.734
relative viability (AZ505 + Olaparib; first compound 8 µM): 0.711
relative viability (AZ505 + Bortezomib; first compound 0.08 µM): 1.13
relative viability (AZ505 + Bortezomib; first compound 0.253 µM): 1.19
relative viability (AZ505 + Bortezomib; first compound 0.8 µM): 1.16
relative viability (AZ505 + Bortezomib; first compound 2.53 µM): 1.25
relative viability (AZ505 + Bortezomib; first compound 8 µM): 1.16
relative viability (AZ505 + Tozasertib; first compound 0.08 µM): 0.57
relative viability (AZ505 + Tozasertib; first compound 0.253 µM): 0.534
relative viability (AZ505 + Tozasertib; first compound 0.8 µM): 0.586
relative viability (AZ505 + Tozasertib; first compound 2.53 µM): 0.534
relative viability (AZ505 + Tozasertib; first compound 8 µM): 0.527
relative viability (AZ505 + Lapatinib; first compound 0.08 µM): 0.865
relative viability (AZ505 + Lapatinib; first compound 0.253 µM): 0.944
relative viability (AZ505 + Lapatinib; first compound 0.8 µM): 0.95
relative viability (AZ505 + Lapatinib; first compound 2.53 µM): 0.855
relative viability (AZ505 + Lapatinib; first compound 8 µM): 0.995

HOP-62
relative viability (AZ505 + Olaparib; first compound 0.253 µM): 0.374
relative viability (AZ505 + Olaparib; first compound 0.8 µM): 0.386
relative viability (AZ505 + Olaparib; first compound 2.53 µM): 0.387
relative viability (AZ505 + Olaparib; first compound 8 µM): 0.45
relative viability (AZ505 + Bortezomib; first compound 0.08 µM): 0.911
relative viability (AZ505 + Bortezomib; first compound 0.253 µM): 0.82
relative viability (AZ505 + Bortezomib; first compound 0.8 µM): 1.01
relative viability (AZ505 + Bortezomib; first compound 2.53 µM): 0.839
relative viability (AZ505 + Bortezomib; first compound 8 µM): 0.945
relative viability (AZ505 + Tozasertib; first compound 0.08 µM): 0.386
relative viability (AZ505 + Tozasertib; first compound 0.253 µM): 0.436
relative viability (AZ505 + Tozasertib; first compound 0.8 µM): 0.385
relative viability (AZ505 + Tozasertib; first compound 2.53 µM): 0.427
relative viability (AZ505 + Tozasertib; first compound 8 µM): 0.383
relative viability (AZ505 + Lapatinib; first compound 0.08 µM): 0.878
relative viability (AZ505 + Lapatinib; first compound 0.253 µM): 1.22
relative viability (AZ505 + Lapatinib; first compound 0.8 µM): 1.08
relative viability (AZ505 + Lapatinib; first compound 2.53 µM): 1.03
relative viability (AZ505 + Lapatinib; first compound 8 µM): 0.942

NCI-H2085
relative viability (AZ505 + Olaparib; first compound 0.08 µM): 0.715
relative viability (AZ505 + Olaparib; first compound 0.253 µM): 0.797
relative viability (AZ505 + Olaparib; first compound 0.8 µM): 0.654
relative viability (AZ505 + Olaparib; first compound 2.53 µM): 0.735
relative viability (AZ505 + Olaparib; first compound 8 µM): 0.729
relative viability (AZ505 + Bortezomib; first compound 0.08 µM): 0.958
relative viability (AZ505 + Bortezomib; first compound 0.253 µM): 1.01
relative viability (AZ505 + Bortezomib; first compound 0.8 µM): 0.934
relative viability (AZ505 + Bortezomib; first compound 2.53 µM): 1.05
relative viability (AZ505 + Bortezomib; first compound 8 µM): 1.1
relative viability (AZ505 + Tozasertib; first compound 0.08 µM): 0.663
relative viability (AZ505 + Tozasertib; first compound 0.253 µM): 0.786
relative viability (AZ505 + Tozasertib; first compound 0.8 µM): 0.823
relative viability (AZ505 + Tozasertib; first compound 2.53 µM): 0.825
relative viability (AZ505 + Tozasertib; first compound 8 µM): 0.891
relative viability (AZ505 + Lapatinib; first compound 0.08 µM): 0.67
relative viability (AZ505 + Lapatinib; first compound 0.253 µM): 0.7
relative viability (AZ505 + Lapatinib; first compound 0.8 µM): 0.668
relative viability (AZ505 + Lapatinib; first compound 2.53 µM): 0.789
relative viability (AZ505 + Lapatinib; first compound 8 µM): 0.83
